Source: US12708605B2, “Method of administering a hormone encapsulated by a hydrogel with a dual chamber syringe” (VITALTE LIFESCIENCES INC., priority 2024, dated 2026)

Assay: Saturation level of T in saline (T powder slurry)
Format: physicochemical
Protocol: The T powder was produced as a 2.5 mg/mL slurry in buffer to reach the near saturation point of T in the buffer. Samples of the T powder slurry were removed from only the top layer of the slurry fluid to avoid aspirating T particles in the slurry that may have precipitated at to the bottom. T pellets were collected directly from the vials in which they were stored. The 83 mg hydrogels containing 30% T were collected from Dulbecco's PBS buffer, rinsed, and dried. Each of the collected samples was then placed in a separate container of incubation media (saline in this instance) for the release studies.
Samples of the respective incubation media for the T powder, pelleted T, and hydrogel encapsulated T were collected at 4, 24, and 48 hours, with 2-3 replicates from each experimental group at each collection time. All collected samples were then diluted before assaying for released T in the incubation media. Initially, the samples collected at 4 hours were diluted 400-fold, while the samples collected at 24 and 48 hours were diluted 1600-fold. […] As a result, dilution testing was performed at dilutions of 1200, 1600, 1800, 2200, 2400, and 3000-fold. […]

## C[C@]12CC[C@H]3[C@@H](CCC4=CC(=O)CC[C@@]43C)[C@@H]1CC[C@@H]2O [T powder, Testosterone]
  approximate saturation level of T in saline: about 1.5 mg/L
